From ChEMBL document CHEMBL5528023, “Discovery of a CB2 and 5-HT1A receptor dual agonist for the treatment of depression and anxiety” (Eur J Med Chem, 2024)
≈ marks a conversion by molar mass, not a printed value. Calls of active or inactive are those of the source. The calls are words filed in the database; no cut-off is given here.

Key:
Cannabinoid receptor 1 [1] = target: T1, Cannabinoid receptor 1 (Homo sapiens, UniProt P21554); test: Antagonist activity at human CB1 receptor expressed in CHO cells assessed as inhibition of forskolin-stimulated cAMP formation preincubated with compound for 10 mins followed by forskolin induction and measured after 30 mins by HTRF analysis; format: functional, cell-based
T1 sequence (P21554 whole entry): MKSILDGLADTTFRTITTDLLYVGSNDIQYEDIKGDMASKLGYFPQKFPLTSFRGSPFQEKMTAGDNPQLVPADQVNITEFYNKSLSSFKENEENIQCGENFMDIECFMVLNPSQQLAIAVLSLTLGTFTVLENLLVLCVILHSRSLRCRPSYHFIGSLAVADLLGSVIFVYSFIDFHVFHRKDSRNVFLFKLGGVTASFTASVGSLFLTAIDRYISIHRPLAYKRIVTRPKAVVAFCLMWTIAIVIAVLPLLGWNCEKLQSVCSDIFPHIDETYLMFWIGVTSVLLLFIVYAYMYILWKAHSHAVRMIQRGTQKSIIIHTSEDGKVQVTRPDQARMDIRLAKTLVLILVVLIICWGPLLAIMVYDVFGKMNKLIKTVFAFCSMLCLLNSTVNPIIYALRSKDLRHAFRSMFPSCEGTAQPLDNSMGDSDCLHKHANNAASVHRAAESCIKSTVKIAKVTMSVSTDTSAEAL

Cannabinoid receptor 1 [2] = target: T1, Cannabinoid receptor 1; test: Antagonist activity at human CB1 receptor expressed in CHO cells assessed as inhibition of forskolin-stimulated cAMP formation by measuring maximum inhibition preincubated with compound for 10 mins followed by forskolin induction and measured after 30 mins by HTRF analysis relative to control; format: functional, cell-based; conditions: filed as antagonist, time 40.0 min
Cannabinoid receptor 2 [3] = target: T2, Cannabinoid receptor 2 (Homo sapiens, UniProt P34972); test: Agonist activity at human CB2 receptor expressed in CHO cells assessed as forskolin-stimulated cAMP formation preincubated with compound for 10 mins followed by forskolin induction and measured after 30 mins by HTRF analysis; format: functional, cell-based
T2 sequence (P34972 whole entry): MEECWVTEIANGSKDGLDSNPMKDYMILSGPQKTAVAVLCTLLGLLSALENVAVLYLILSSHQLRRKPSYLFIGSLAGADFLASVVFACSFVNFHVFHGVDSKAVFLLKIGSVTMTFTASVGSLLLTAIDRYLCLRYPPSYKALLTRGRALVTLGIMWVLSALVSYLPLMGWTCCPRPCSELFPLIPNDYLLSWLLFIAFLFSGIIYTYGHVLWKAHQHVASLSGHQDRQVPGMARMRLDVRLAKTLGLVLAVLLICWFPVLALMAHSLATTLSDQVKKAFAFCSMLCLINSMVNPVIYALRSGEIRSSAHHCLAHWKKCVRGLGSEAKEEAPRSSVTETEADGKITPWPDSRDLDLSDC

Cannabinoid receptor 2 [4] = target: T2, Cannabinoid receptor 2; test: Agonist activity at human CB2 receptor expressed in CHO cells assessed as forskolin-stimulated cAMP formation preincubated with compound for 10 mins followed by forskolin induction and measured after 30 mins by HTRF analysis relative to control; format: functional, cell-based; conditions: time 40.0 min
[5] = target: T3, 5-hydroxytryptamine receptor 1A (Homo sapiens, UniProt P08908); test: Agonist activity at human 5HT1A receptor expressed in HEK293 cells assessed as forskolin-stimulated cAMP formation preincubated with compound for 10 mins followed by forskolin induction and measured after 30 mins by HTRF analysis; format: functional, cell-based
T3 sequence (P08908 whole entry): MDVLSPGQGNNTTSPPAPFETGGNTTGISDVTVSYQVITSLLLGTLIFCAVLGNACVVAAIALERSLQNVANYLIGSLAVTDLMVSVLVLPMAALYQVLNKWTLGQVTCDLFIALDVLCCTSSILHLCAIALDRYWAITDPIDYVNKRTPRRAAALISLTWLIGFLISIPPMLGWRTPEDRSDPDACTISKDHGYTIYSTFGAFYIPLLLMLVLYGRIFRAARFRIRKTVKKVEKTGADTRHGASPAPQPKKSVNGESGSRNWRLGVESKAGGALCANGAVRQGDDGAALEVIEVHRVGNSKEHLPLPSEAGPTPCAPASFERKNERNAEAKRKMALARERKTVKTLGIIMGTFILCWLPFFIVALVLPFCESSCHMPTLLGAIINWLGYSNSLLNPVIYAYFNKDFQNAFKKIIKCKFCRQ

[6] = target: T4, 5-hydroxytryptamine receptor 1A (Homo sapiens) (UniProt P08908); test: Agonist activity at human 5HT1A receptor expressed in HEK293 cells assessed as forskolin-stimulated cAMP formation preincubated with compound for 10 mins followed by forskolin induction and measured after 30 mins by HTRF analysis relative to control; format: functional, cell-based; conditions: filed as agonist, time 40.0 min
T4 sequence (whole entry): T3 sequence (P08908 whole entry)

[7] = Half life in ICR mouse at 25 mg/kg, po measured upto 8 hrs by LC-MS/MS analysis; format: ADME, organism-based; conditions: in vivo
[8] = Tmax in ICR mouse at 25 mg/kg, po measured upto 8 hrs by LC-MS/MS analysis; format: ADME, organism-based; conditions: in vivo
[9] = Cmax in ICR mouse at 25 mg/kg, po measured upto 8 hrs by LC-MS/MS analysis; format: ADME, organism-based; conditions: in vivo
[10] = AUClast in ICR mouse at 25 mg/kg, po measured upto 8 hrs by LC-MS/MS analysis; format: ADME, organism-based; conditions: in vivo
[11] = Cmax in ICR mouse brain at 25 mg/kg, po measured upto 8 hrs by LC-MS/MS analysis; format: ADME, organism-based
Mus musculus [12] = test: Induction of spontaneous locomotor activity in C57BL/6 mouse at 1 mg/kg, ip measured at 1 hr; format: functional, organism-based
Mus musculus [13] = test: Induction of spontaneous locomotor activity in C57BL/6 mouse at 3 mg/kg, ip measured at 15 mins; format: functional, organism-based
Mus musculus [14] = test: Induction of spontaneous locomotor activity in C57BL/6 mouse assessed as distance traveled at 10 mg/kg, ip measured at 1 hr; format: functional, organism-based
Mus musculus [15] = test: Induction of spontaneous locomotor activity in C57BL/6 mouse assessed as distance traveled at 1 to 10 mg/kg, ip administered once per day for 15 days and measured after 1 hr; format: functional, organism-based; conditions: dose 1-10 mg/kg, time 361.0 hrs
Mus musculus [16] = test: Antidepressant activity in C57BL/6J mouse assessed as reduction in immobility time at 1 mg/kg, ip administered for 12 days and measured after 15 mins by forced swim test; format: functional, organism-based; conditions: time 17295.0 min
Mus musculus [17] = test: Antidepressant activity in C57BL/6J mouse assessed as reduction in immobility time at 3 to 10 mg/kg, ip administered for 12 days and measured after 15 mins by forced swim test; format: functional, organism-based; conditions: dose 3-10 mg/kg, time 17295.0 min
Mus musculus [18] = test: Antidepressant activity in C57BL/6J mouse assessed as reduction in immobility time at 1 mg/kg, ip administered for 12 days by forced swim test; format: functional, organism-based; conditions: time 12.0 day
Mus musculus [19] = test: Antidepressant activity in C57BL/6J mouse assessed as reduction in immobility time at 3 to 10 mg/kg, ip administered for 12 days by forced swim test; format: functional, organism-based; conditions: dose 3-10 mg/kg, time 12.0 day
Mus musculus [20] = test: Antidepressant activity in C57BL/6J mouse at 1 mg/kg, ip administered for 14 days by tail suspension test; format: functional, organism-based; conditions: time 14.0 day
Mus musculus [21] = test: Antidepressant activity in C57BL/6J mouse assessed as […] at 1 mg/kg, ip administered for 14 days by tail suspension test; format: functional, organism-based; conditions: time 14.0 day
[22] = Toxicity in C57BL/6J mouse assessed as effect on body weight at 1 to 10 mg/kg, ip measured upto 10 days; format: organism-based; conditions: in vivo, 240 h, dose 1-10 mg/kg, time < 10 day
Mus musculus [23] = test: Anxiolytic activity against stress-induced hyperthermia in ICR mouse assessed as reduction in basal core rectal temperature at 1 to 10 mg/kg, ip measured for 60 mins; format: functional, organism-based; conditions: dose 1-10 mg/kg
Mus musculus [24] = test: Anxiolytic activity against stress-induced hyperthermia in ip dosed ICR mouse assessed as reduction in basal core rectal temperature measured for 60 mins; format: functional, organism-based; conditions: dose 3-10 mg/kg
Mus musculus [25] = test: Anxiolytic activity against stress-induced hyperthermia in ip dosed ICR mouse assessed as reduction in delta temperature measured for 60 mins; format: functional, organism-based; conditions: dose 1-10 mg/kg
Cannabinoid receptor 2 [26] = target: T2, Cannabinoid receptor 2; test: Partial agonist activity at human CB2 receptor expressed in CHO cells assessed as forskolin-stimulated cAMP formation preincubated with compound for 10 mins followed by forskolin induction and measured after 30 mins by HTRF analysis; format: functional, cell-based
Cannabinoid receptor 2 [27] = target: T2, Cannabinoid receptor 2; test: Partial agonist activity at human CB2 receptor expressed in CHO cells assessed as forskolin-stimulated cAMP formation preincubated with compound for 10 mins followed by forskolin induction and measured after 30 mins by HTRF analysis relative to control; format: functional, cell-based; conditions: filed as partial agonist, time 40.0 min
[28] = Solubility of compound in phosphate buffer at pH 6.8 by HPLC analysis; format: physicochemical

SMILES: C=C(C)[C@@H]1CCC(C)=C[C@H]1c1c(O)cc(C2(CCCC)CC2)c(C(N)=O)c1O
- IC50 (Cannabinoid receptor 1 [1]): 3.2 µM
- Imax (Cannabinoid receptor 1 [2]): 93.8%
- EC50 (Cannabinoid receptor 2 [3]): 0.48 µM
- Emax (Cannabinoid receptor 2 [4]): 34.9%
- EC50 [5]: 2.7 µM
- Emax [6]: 101%
- half-life [7]: 2.5 h
- Tmax [8]: 1.3 h
- Cmax [9]: 211 ng/mL
- AUC(0-t) at 8 h [10]: 545 ng·h/mL
- Cmax [11]: 217 ng/g
- Activity (Mus musculus [12]): Active
- Activity (Mus musculus [13]): Active
- Activity (Mus musculus [14]): inactive
- Activity (Mus musculus [15]): Active
- Activity (Mus musculus [16]): Active
- Activity (Mus musculus [17]): Active
- Activity (Mus musculus [18]): Active
- Activity (Mus musculus [19]): Active
- Activity (Mus musculus [20]): Active
- Activity (Mus musculus [21]): inactive
- Activity [22]: Non-Toxic
- Activity (Mus musculus [23]): Active
- Activity (Mus musculus [24]): Dose-Dependent Effect
- Activity (Mus musculus [25]): Dose-Dependent Effect

SMILES: C=C(C)[C@@H]1CCC(C)=C[C@H]1c1c(O)cc(-c2ccccn2)cc1O
- IC50 (Cannabinoid receptor 1 [1]): 6.3 µM
- Imax (Cannabinoid receptor 1 [2]): 92.1%
- EC50 (Cannabinoid receptor 2 [3]): > 0.01 µM

SMILES: C=C(C)[C@@H]1CCC(C)=C[C@H]1c1c(O)cc(CCC)cc1O [CANNABIDIVARIN]
- IC50 (Cannabinoid receptor 1 [1]): 5.6 µM
- Imax (Cannabinoid receptor 1 [2]): 94.9%
- EC50 (Cannabinoid receptor 2 [3]): > 0.01 µM

SMILES: C=C(C)[C@@H]1CCC(C)=C[C@H]1c1c(O)cc(C(C)C)cc1O
- IC50 (Cannabinoid receptor 1 [1]): 0.018 µM
- Imax (Cannabinoid receptor 1 [2]): 94%
- EC50 (Cannabinoid receptor 2 [3]): > 0.01 µM

SMILES: C=C(C)[C@@H]1CCC(C)=C[C@H]1c1c(O)cc(C2CC2)cc1O
- IC50 (Cannabinoid receptor 1 [1]): 4.4 µM
- Imax (Cannabinoid receptor 1 [2]): 94%
- EC50 (Cannabinoid receptor 2 [3]): > 0.01 µM

SMILES: C=C(C)[C@@H]1CCC(C)=C[C@H]1c1c(O)cc(C)cc1O
- IC50 (Cannabinoid receptor 1 [1]): 6.3 µM
- Imax (Cannabinoid receptor 1 [2]): 115%
- EC50 (Cannabinoid receptor 2 [3]): > 10 µM

SMILES: C=C(C)[C@@H]1CCC(C)=C[C@H]1c1c(O)cc(C#CC)cc1O
- IC50 (Cannabinoid receptor 1 [1]): 3.3 µM
- Imax (Cannabinoid receptor 1 [2]): 96.7%
- EC50 (Cannabinoid receptor 2 [3]): > 0.01 µM

SMILES: C=C(C)[C@@H]1CCC(C)=C[C@H]1c1c(O)cc(C2CCCC2)cc1O
- EC50 (Cannabinoid receptor 2 [26]): 0.113 µM
- Emax (Cannabinoid receptor 2 [27]): 76.3%
- half-life [7]: 1.8 h
- Tmax [8]: 1 h
- Cmax [9]: 514 ng/mL
- AUC(0-t) at 8 h [10]: 1080 ng·h/mL

SMILES: C=Cc1cc(O)c([C@@H]2C=C(C)CC[C@H]2C(=C)C)c(O)c1
- IC50 (Cannabinoid receptor 1 [1]): 6.4 µM
- Imax (Cannabinoid receptor 1 [2]): 83.3%
- EC50 (Cannabinoid receptor 2 [3]): > 0.01 µM

SMILES: C=C(C)[C@@H]1CCC(C)=C[C@H]1c1c(O)cc(C(C)(C)CCCC)c(C(=O)NC)c1O
- IC50 (Cannabinoid receptor 1 [1]): 4.4 µM
- Imax (Cannabinoid receptor 1 [2]): 104%
- EC50 (Cannabinoid receptor 2 [3]): > 10 µM

SMILES: C=C(C)[C@@H]1CCC(C)=C[C@H]1c1c(O)cc(-c2ccccc2)cc1O
- IC50 (Cannabinoid receptor 1 [1]): > 10 µM
- EC50 (Cannabinoid receptor 2 [3]): > 0.01 µM

SMILES: C=C(C)[C@@H]1CCC(C)=C[C@H]1c1c(O)cc(CCCCC)c(C(=O)N(C)C)c1O
- IC50 (Cannabinoid receptor 1 [1]): 6.9 µM
- Imax (Cannabinoid receptor 1 [2]): 88.9%
- EC50 (Cannabinoid receptor 2 [26]): 1.01 µM
- Emax (Cannabinoid receptor 2 [27]): 73.6%
- solubility [28]: 3 µg/mL (≈ 7.78 µM)
- half-life [7]: 1.7 h
- Tmax [8]: 0.4 h
- Cmax [9]: 22.2 ng/mL
- AUC(0-t) at 8 h [10]: 26.3 ng·h/mL

SMILES: C=C(C)[C@@H]1CCC(C)=C[C@H]1c1c(O)cc(C2CC2)c(C(=O)NC)c1O
- IC50 (Cannabinoid receptor 1 [1]): > 10 µM
- EC50 (Cannabinoid receptor 2 [3]): > 10 µM
